Reference: US20200163984A1, “USE OF ISOVALERYL SPIRAMYCIN I, II AND/OR III IN MANUFACTURING MEDICAMENT FOR TREATING AND/OR PREVENTING TUMOR, AND MEDICAMENT” (SHENYANG FUYANG PHARMACEUTICAL TECHNOLOGY CO., LTD., priority 2017, published 2020)

Legend:
Settings in all cases: for Tumor Volume (mm3) (d 1): d1
[1] = test system: transplanted tumor of human non-small cell lung cancer cell A549; assay: A549 transplanted tumor in nude mice
Outline: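 Nude mice inoculated s.c. at right armpit with A549 cells in matrigel (0.2 ml at 1×10^7/ml); at tumor ≥100 mm^3, randomized (n=6/group) and dosed intragastrically at 25, 50 or 100 mg/kg daily for 30 days. Tumor diameters measured every 3 days (V=a×b^2/2, RTV, T/C%); tumors weighed at sacrifice for inhibition rate versus model group.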

[2] = test system: transplanted tumor of human glioma cell U251; assay: U251 transplanted tumor in nude mice
Outline: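 U251 cells (1×10^7/ml in matrigel, 0.2 ml) implanted subcutaneously in nude mice; at ≥100 mm^3, 6 mice/group dosed intragastrically at 25, 50 or 100 mg/kg for 30 days. Tumor volume (a×b^2/2) every 3 days gave RTV and T/C; inhibition rate from tumor weight after sacrifice.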

[3] = test system: transplanted tumor of human renal clear cell adenocarcinoma cell 786-O; assay: 786-O transplanted tumor in nude mice
Outline: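 Nude mice inoculated subcutaneously with 786-O cells in matrigel; at ≥100 mm^3 tumors, groups of 6 dosed intragastrically at 25, 50 or 100 mg/kg for 30 days. Tumor size measured every 3 days (V=a×b^2/2, RTV, T/C); tumors weighed at sacrifice for growth inhibition rate versus model group.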

[4] = A549, high dose (100 mg/kg in method) i.g. 30 days
[5] = A549, low dose (25 mg/kg in method) i.g. 30 days
[6] = A549, medium dose (50 mg/kg in method) i.g. 30 days
[7] = U251, high dose (100 mg/kg in method) i.g. 30 days
[8] = U251, low dose (25 mg/kg in method) i.g. 30 days
[9] = U251, medium dose (50 mg/kg in method) i.g. 30 days
[10] = 786-O, high dose (100 mg/kg in method) i.g. 30 days
[11] = 786-O, low dose (25 mg/kg in method) i.g. 30 days
[12] = 786-O, medium dose (50 mg/kg in method) i.g. 30 days

CCC(=O)O[C@@H]1CC(=O)O[C@H](C)C/C=C/C=C/[C@H](O[C@H]2CC[C@H](N(C)C)[C@@H](C)O2)[C@H](C)C[C@H](CC=O)[C@H](O[C@@H]2O[C@H](C)[C@@H](O[C@H]3C[C@@](C)(O)[C@@H](OC(=O)CC(C)C)[C@H](C)O3)[C@H](N(C)C)[C@H]2O)[C@H]1OC [Isovaleryl spiramycin III, isovaleryl spiramycin III]
Relative Tumor Proliferation Rate (T/C) [1, 4]: 33.04% | tumor growth inhibition rate [1, 4]: 66.53% | Relative Tumor Proliferation Rate (T/C) [1, 5]: 65.93% | tumor growth inhibition rate [1, 5]: 37.99% | tumor volume and relative tumor volume compared with the model group ([1]; A549, low, medium and high doses, P<0.05): significantly lower | Relative Tumor Proliferation Rate (T/C) [1, 6]: 47.25% | tumor growth inhibition rate [1, 6]: 55.95% | Inhibition Rate (%) ([1]; A549 nude mice, 25 mg/kg): 37.99% | Relative Tumor Proliferation Rate (T/C) ([1]; A549 nude mice, 25 mg/kg): 65.93% | Relative Tumor Volume (RTV) ([1]; A549 nude mice, 25 mg/kg): 10.70 ± 2.64 | Tumor Weight ([1]; A549 nude mice, 25 mg/kg): 1.49 ± 0.42 g | Tumor Volume (mm3) (d 1) ([1]; A549 nude mice, 25 mg/kg): 113.96 ± 6.85 mm3 | Tumor Volume (mm3) (d30) ([1]; A549 nude mice, 25 mg/kg): 1216.86 ± 295.20 mm3 | Inhibition Rate (%) ([1]; A549 nude mice, 50 mg/kg): 55.95% | Relative Tumor Proliferation Rate (T/C) ([1]; A549 nude mice, 50 mg/kg): 47.25% | Relative Tumor Volume (RTV) ([1]; A549 nude mice, 50 mg/kg): 7.67 ± 2.86 | Tumor Weight ([1]; A549 nude mice, 50 mg/kg): 1.06 ± 0.49 g | Tumor Volume (mm3) (d 1) ([1]; A549 nude mice, 50 mg/kg): 113.65 ± 11.57 mm3 | Tumor Volume (mm3) (d30) ([1]; A549 nude mice, 50 mg/kg): 856.65 ± 281.96 mm3 | Inhibition Rate (%) ([1]; A549 nude mice, 100 mg/kg): 66.53% | Relative Tumor Proliferation Rate (T/C) ([1]; A549 nude mice, 100 mg/kg): 33.04% | Relative Tumor Volume (RTV) ([1]; A549 nude mice, 100 mg/kg): 5.36 ± 3.01 | Tumor Weight ([1]; A549 nude mice, 100 mg/kg): 0.80 ± 0.43 g | Tumor Volume (mm3) (d 1) ([1]; A549 nude mice, 100 mg/kg): 118.69 ± 8.13 mm3 | Tumor Volume (mm3) (d30) ([1]; A549 nude mice, 100 mg/kg): 632.73 ± 350.89 mm3 | mouse weight compared with the model group ([1]; mouse, in vivo): no significant changes | Body Weight (g) (d1) ([1]; mouse, in vivo, 25 mg/kg): 21.68 ± 1.25 g | Body Weight (g) (d30) ([1]; mouse, in vivo, 25 mg/kg): 23.97 ± 1.01 g | Body Weight (g) (d1) ([1]; mouse, in vivo, 50 mg/kg): 21.99 ± 1.40 g | Body Weight (g) (d30) ([1]; mouse, in vivo, 50 mg/kg): 24.36 ± 1.73 g | Body Weight (g) (d1) ([1]; mouse, in vivo, 100 mg/kg): 20.57 ± 2.28 g | Body Weight (g) (d30) ([1]; mouse, in vivo, 100 mg/kg): 23.53 ± 1.63 g | Relative Tumor Proliferation Rate (T/C) [2, 7]: 41.10% | tumor growth inhibition rate [2, 7]: 59.56% | Relative Tumor Proliferation Rate (T/C) [2, 8]: 68.16% | tumor growth inhibition rate [2, 8]: 15.45% | tumor volume and relative tumor volume compared with the model group ([2]; U251, low, medium and high doses, P<0.05): significantly lower | Relative Tumor Proliferation Rate (T/C) [2, 9]: 54.34% | tumor growth inhibition rate [2, 9]: 32.74% | Inhibition Rate (%) ([2]; U251 nude mice, 25 mg/kg): 15.45% | Relative Tumor Proliferation Rate (T/C) ([2]; U251 nude mice, 25 mg/kg): 68.16% | Relative Tumor Volume (RTV) ([2]; U251 nude mice, 25 mg/kg): 13.47 ± 1.67 | Tumor Weight ([2]; U251 nude mice, 25 mg/kg): 1.17 ± 0.11 g | Tumor Volume (mm3) (d 1) ([2]; U251 nude mice, 25 mg/kg): 124.24 ± 10.18 mm3 | Tumor Volume (mm3) (d30) ([2]; U251 nude mice, 25 mg/kg): 1413.41 ± 221.90 mm3 | Inhibition Rate (%) ([2]; U251 nude mice, 50 mg/kg): 32.74% | Relative Tumor Proliferation Rate (T/C) ([2]; U251 nude mice, 50 mg/kg): 54.34% | Relative Tumor Volume (RTV) ([2]; U251 nude mice, 50 mg/kg): 12.63 ± 1.27 | Tumor Weight ([2]; U251 nude mice, 50 mg/kg): 0.93 ± 0.12 g | Tumor Volume (mm3) (d 1) ([2]; U251 nude mice, 50 mg/kg): 121.24 ± 9.15 mm3 | Tumor Volume (mm3) (d30) ([2]; U251 nude mice, 50 mg/kg): 1096.57 ± 173.49 mm3 | Inhibition Rate (%) ([2]; U251 nude mice, 100 mg/kg): 59.56% | Relative Tumor Proliferation Rate (T/C) ([2]; U251 nude mice, 100 mg/kg): 41.10% | Relative Tumor Volume (RTV) ([2]; U251 nude mice, 100 mg/kg): 10.96 ± 0.82 | Tumor Weight ([2]; U251 nude mice, 100 mg/kg): 0.56 ± 0.05 g | Tumor Volume (mm3) (d 1) ([2]; U251 nude mice, 100 mg/kg): 120.86 ± 6.34 mm3 | Tumor Volume (mm3) (d30) ([2]; U251 nude mice, 100 mg/kg): 832.79 ± 182.98 mm3 | mouse weight compared with the model group ([2]; mouse, in vivo): no significant changes | Body Weight (g) (d1) ([2]; mouse, in vivo, 25 mg/kg): 20.96 ± 0.58 g | Body Weight (g) (d30) ([2]; mouse, in vivo, 25 mg/kg): 20.70 ± 0.51 g | Body Weight (g) (d1) ([2]; mouse, in vivo, 50 mg/kg): 21.25 ± 0.53 g | Body Weight (g) (d30) ([2]; mouse, in vivo, 50 mg/kg): 21.10 ± 0.60 g | Body Weight (g) (d1) ([2]; mouse, in vivo, 100 mg/kg): 21.33 ± 0.62 g | Body Weight (g) (d30) ([2]; mouse, in vivo, 100 mg/kg): 21.03 ± 0.55 g | Inhibition Rate (%) ([3]; 786-O nude mice, 25 mg/kg): 35.80% | Relative Tumor Proliferation Rate (T/C) ([3]; 786-O nude mice, 25 mg/kg): 73.13% | Relative Tumor Volume (RTV) ([3]; 786-O nude mice, 25 mg/kg): 18.90 ± 3.60 | Tumor Weight ([3]; 786-O nude mice, 25 mg/kg): 1.38 ± 0.42 g | Tumor Volume (mm3) (d 1) ([3]; 786-O nude mice, 25 mg/kg): 106.47 ± 6.86 mm3 | Tumor Volume (mm3) (d30) ([3]; 786-O nude mice, 25 mg/kg): 1479.90 ± 458.97 mm3 | Inhibition Rate (%) ([3]; 786-O nude mice, 50 mg/kg): 52.14% | Relative Tumor Proliferation Rate (T/C) ([3]; 786-O nude mice, 50 mg/kg): 51.33% | Relative Tumor Volume (RTV) ([3]; 786-O nude mice, 50 mg/kg): 9.76 ± 1.44 | Tumor Weight ([3]; 786-O nude mice, 50 mg/kg): 1.02 ± 0.27 g | Tumor Volume (mm3) (d 1) ([3]; 786-O nude mice, 50 mg/kg): 96.82 ± 8.52 mm3 | Tumor Volume (mm3) (d30) ([3]; 786-O nude mice, 50 mg/kg): 944.60 ± 112.60 mm3 | Inhibition Rate (%) ([3]; 786-O nude mice, 100 mg/kg): 62.49% | Relative Tumor Proliferation Rate (T/C) ([3]; 786-O nude mice, 100 mg/kg): 34.20% | Relative Tumor Volume (RTV) ([3]; 786-O nude mice, 100 mg/kg): 6.18 ± 0.61 | Tumor Weight ([3]; 786-O nude mice, 100 mg/kg): 0.80 ± 0.05 g | Tumor Volume (mm3) (d 1) ([3]; 786-O nude mice, 100 mg/kg): 103.26 ± 9.71 mm3 | Tumor Volume (mm3) (d30) ([3]; 786-O nude mice, 100 mg/kg): 635.26 ± 78.22 mm3 | Relative Tumor Proliferation Rate (T/C) [3, 10]: 34.20% | tumor growth inhibition rate [3, 10]: 62.49% | Relative Tumor Proliferation Rate (T/C) [3, 11]: 73.13% | tumor growth inhibition rate [3, 11]: 35.80% | tumor volume and relative tumor volume compared with the model group ([3]; 786-O, low, medium and high doses, P<0.05): significantly lower | Relative Tumor Proliferation Rate (T/C) [3, 12]: 51.33% | tumor growth inhibition rate [3, 12]: 52.14% | mouse weight compared with the model group ([3]; mouse, in vivo): no significant changes | Body Weight (g) (d1) ([3]; mouse, in vivo, 25 mg/kg): 22.72 ± 0.78 g | Body Weight (g) (d30) ([3]; mouse, in vivo, 25 mg/kg): 23.85 ± 0.89 g | Body Weight (g) (d1) ([3]; mouse, in vivo, 50 mg/kg): 21.43 ± 1.08 g | Body Weight (g) (d30) ([3]; mouse, in vivo, 50 mg/kg): 22.33 ± 1.09 g | Body Weight (g) (d1) ([3]; mouse, in vivo, 100 mg/kg): 22.28 ± 1.72 g | Body Weight (g) (d30) ([3]; mouse, in vivo, 100 mg/kg): 23.43 ± 1.69 g
